Laboratory results reported in US11629171B2, “Beta-hairpin peptidomimetics” (POLYPHOR AG, priority 2017, dated 2023).
In brackets after ≈: the same amount, converted by molar mass. Where a SMILES comes first, the peptide text is derived from it. Bridges are numbered along the chain shown (N, C = ends). Roman numbers before positions name the chains, in order. [ ]: non-standard residue; d: D form. Thr(ol) = C[C@@H](O)[C@H](N)CO; Tle = CC(C)(C)[C@H](N)C(=O)O; NMeV = CN[C@H](C(=O)O)C(C)C; Hiv = CC(C)[C@H](O)C(=O)O; dDab = NCC[C@@H](N)C(=O)O; hSer = N[C@@H](CCO)C(=O)O; Dab = NCC[C@H](N)C(=O)O; Dap = NC[C@H](N)C(=O)O

What was measured:
Format in all cases: cell-based
[1] = system: human red blood cells (hRBC); assay: Hemolysis; conditions: red cells of human, 1 h, 200
In short: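 Hemoglobin release from PBS-washed hRBC at 20% (v/v), incubated 1 h at 37° C with peptides at 200 μg/mL, is measured at 540 nm. Values are blank corrected and given as a fraction of Triton X-100 lysis × 100%.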

Escherichia coli 926415 = conditions: 926415
In short: (§1)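 Visible-growth endpoint after 18-20 h at 35° C defines the MIC (μg/mL). Setup: CLSI broth microdilution, MH-II cation-adjusted broth with P-80 at 0.002% final, inoculum of approximately 10^6 CFU/mL, two-fold serial peptide dilutions.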

[2] = system: Enterobacter cloacae 848840; conditions: 848840
In short: as §1

[3] = system: Pseudomonas aeruginosa ATCC 27853; conditions: ATCC 27853
In short: as §1

[4] = system: Escherichia coli ATCC 25922; conditions: ATCC 25922
In short: as §1

[5] = system: Klebsiella pneumoniae 968733; conditions: 968733
In short: as §1

[6] = system: Acinetobacter baumannii 872842; conditions: 872842
In short: as §1

[7] = system: Klebsiella pneumoniae SSI #3010; conditions: SSI #3010
In short: as §1

[8] = system: Acinetobacter baumannii DSM 30008; conditions: DSM 30008
In short: as §1

CN[C@H](C(=O)N[C@H](C(=O)N[C@@H](Cc1ccc(O)cc1)C(=O)N[C@H]1CSSC[C@@H](C(=O)N[C@H](C(=O)N[C@@H](C)C(=O)N[C@@H](CO)C(N)=O)C(C)C)NC(=O)[C@H](Cc2c[nH]c3ccccc23)NC(=O)[C@H](CO)NC(=O)[C@@H](CCN)NC(=O)[C@H](CCC(=O)N[C@@H](CCN)C(=O)N[C@H](C(=O)N[C@@H](CCN)C(=O)N[C@H]2CCNC(=O)[C@H]([C@@H](C)O)NC(=O)[C@H](CCN)NC(=O)[C@H](CCN)NC(=O)[C@H](CC(C)C)NC(=O)[C@@H](CC(C)C)NC(=O)[C@H](CCN)NC2=O)[C@@H](C)O)NC1=O)[C@@H](C)O)C(C)C [Ex. 184] (I: H-[NMeV]TYCE[dDab]SWCVAS-NH2 / II: [Dab]T[Dab][Dab][Dab][dL]L[Dab][Dab]T; disulfide I:4-I:9; amide I:5-II:N; lactam II:4-II:C)
Hemolysis at 200 μg/mL [1]: <1% | MIC (Escherichia coli 926415): 2 µg/mL (≈ 0.844 µM) | MIC [2]: 1 µg/mL (≈ 0.422 µM) | MIC [3]: 0.25 µg/mL (≈ 0.105 µM) | MIC [4]: 0.125 µg/mL (≈ 0.0527 µM) | MIC [5]: 8 µg/mL (≈ 3.38 µM) | MIC [6]: 1 µg/mL (≈ 0.422 µM) | MIC [7]: 0.25 µg/mL (≈ 0.105 µM) | MIC [8]: 0.125 µg/mL (≈ 0.0527 µM)

CC(C)C[C@@H]1NC(=O)[C@@H](CC(C)C)NC(=O)[C@H](CCN)NC(=O)[C@@H](NC(=O)[C@H](CCN)NC(=O)[C@@H](NC(=O)[C@H](CCN)NC(=O)CC[C@@H]2NC(=O)[C@H](CN)NC(=O)[C@H](Cc3ccc(O)cc3)NC(=O)[C@@H](NC(=O)[C@@H](O)C(C)C)CSSC[C@@H](C(=O)N[C@H](CO)[C@@H](C)O)NC(=O)[C@H](C(C)(C)C)NC(=O)[C@H](CCC(=O)O)NC(=O)[C@H](Cc3c[nH]c4ccccc34)NC(=O)[C@H]([C@@H](C)O)NC(=O)[C@@H](CCN)NC2=O)[C@@H](C)O)CCNC(=O)[C@H]([C@@H](C)O)NC(=O)[C@H](CCN)NC(=O)[C@H](CCN)NC1=O [Ex. 90] (I: H-[Hiv]CY[Dap]E[dDab]TWE[Tle]C[Thr(ol)] / II: [Dab]T[Dab][Dab][Dab][dL]L[Dab][Dab]T; disulfide I:2-I:11; amide I:5-II:N; lactam II:4-II:C)
Hemolysis at 200 μg/mL [1]: <1% | MIC (Escherichia coli 926415): 0.5 µg/mL (≈ 0.206 µM) | MIC [2]: 0.25 µg/mL (≈ 0.103 µM) | MIC [3]: 0.25 µg/mL (≈ 0.103 µM) | MIC [4]: 0.0625 µg/mL (≈ 0.0257 µM) | MIC [5]: 0.25 µg/mL (≈ 0.103 µM) | MIC [6]: 0.125 µg/mL (≈ 0.0515 µM) | MIC [7]: 0.125 µg/mL (≈ 0.0515 µM) | MIC [8]: 0.125 µg/mL (≈ 0.0515 µM)

CC(C)C[C@@H]1NC(=O)[C@H](CCN)NC(=O)[C@H](CCN)NC(=O)[C@H](CC(C)C)NC(=O)[C@@H](CC(C)C)NC(=O)[C@H](CCN)NC(=O)[C@@H](NC(=O)[C@@H](CCN)NC(=O)CC[C@@H]2NC(=O)[C@H](CCN)NC(=O)[C@H](Cc3ccc(O)cc3)NC(=O)[C@@H](NC(=O)[C@@H](O)C(C)C)CSSC[C@@H](C(=O)N[C@H](CO)[C@@H](C)O)NC(=O)[C@H](C(C)(C)C)NC(=O)[C@H](CO)NC(=O)[C@H](Cc3c[nH]c4ccccc34)NC(=O)[C@H](CCO)NC(=O)[C@@H](CCN)NC2=O)CCNC1=O [Ex. 127] (I: H-[Hiv]CY[Dab]E[dDab][hSer]WS[Tle]C[Thr(ol)] / II: [dDab][Dab][Dab][dL]L[Dab][Dab]L; disulfide I:2-I:11; amide I:5-II:N; lactam II:2-II:C)
Hemolysis at 200 μg/mL [1]: 2% | MIC (Escherichia coli 926415): 0.125 µg/mL (≈ 0.0565 µM) | MIC [2]: 0.125 µg/mL (≈ 0.0565 µM) | MIC [3]: 0.5 µg/mL (≈ 0.226 µM) | MIC [4]: 0.0625 µg/mL (≈ 0.0283 µM) | MIC [5]: 0.5 µg/mL (≈ 0.226 µM) | MIC [6]: 0.0625 µg/mL (≈ 0.0283 µM) | MIC [7]: 0.25 µg/mL (≈ 0.113 µM) | MIC [8]: 0.0625 µg/mL (≈ 0.0283 µM)

CNC(=O)[C@H](CO)NC(=O)[C@@H]1CSSC[C@H](NC(=O)[C@@H](NC(C)=O)C(C)C)C(=O)N[C@@H](Cc2ccc(O)cc2)C(=O)N[C@@H](CCN)C(=O)N[C@@H](CCC(=O)N[C@@H](CCN)C(=O)N[C@H](C(=O)N[C@@H](CN)C(=O)N[C@H]2CCNC(=O)[C@H]([C@@H](C)O)NC(=O)[C@H](CCN)NC(=O)[C@H](CCN)NC(=O)[C@H](CC(C)C)NC(=O)[C@@H](CC(C)C)NC(=O)[C@H](CCN)NC2=O)[C@@H](C)O)C(=O)N[C@H](CCN)C(=O)N[C@@H](CO)C(=O)N[C@@H](Cc2c[nH]c3ccccc23)C(=O)N[C@@H](CO)C(=O)N[C@@H](C(C)(C)C)C(=O)N1 [Ex. 145] (I: Ac-VCY[Dab]E[dDab]SWS[Tle]CS-NHMe / II: [Dab]T[Dap][Dab][Dab][dL]L[Dab][Dab]T; disulfide I:2-I:11; amide I:5-II:N; lactam II:4-II:C)
Hemolysis at 200 μg/mL [1]: 2% | MIC (Escherichia coli 926415): 0.0625 µg/mL (≈ 0.0258 µM) | MIC [2]: 0.125 µg/mL (≈ 0.0515 µM) | MIC [3]: 0.125 µg/mL (≈ 0.0515 µM) | MIC [4]: 0.0625 µg/mL (≈ 0.0258 µM) | MIC [5]: 0.125 µg/mL (≈ 0.0515 µM) | MIC [6]: 0.03125 µg/mL (≈ 0.0129 µM) | MIC [7]: 0.125 µg/mL (≈ 0.0515 µM) | MIC [8]: 0.0625 µg/mL (≈ 0.0258 µM)

CC(C)C[C@@H]1NC(=O)[C@@H](CC(C)C)NC(=O)[C@H](CCN)NC(=O)[C@@H](NC(=O)[C@H](CCN)NC(=O)[C@@H](NC(=O)[C@H](CCN)NC(=O)CC[C@@H]2NC(=O)[C@H](CCN)NC(=O)[C@H](Cc3ccc(O)cc3)NC(=O)[C@@H](NC(=O)[C@@H](N)C(C)C)CSSC[C@@H](C(=O)N[C@@H](CO)C(N)=O)NC(=O)[C@H](C(C)C)NC(=O)[C@H](CCO)NC(=O)[C@H](Cc3c[nH]c4ccccc34)NC(=O)[C@H](CCO)NC(=O)[C@@H](CCN)NC2=O)[C@@H](C)O)CCNC(=O)[C@H]([C@@H](C)O)NC(=O)[C@H](CCN)NC(=O)[C@H](CCN)NC1=O [Ex. 48] (I: H-VCY[Dab]E[dDab][hSer]W[hSer]VCS-NH2 / II: [Dab]T[Dab][Dab][Dab][dL]L[Dab][Dab]T; disulfide I:2-I:11; amide I:5-II:N; lactam II:4-II:C)
Hemolysis at 200 μg/mL [1]: <1% | MIC (Escherichia coli 926415): 1 µg/mL (≈ 0.417 µM) | MIC [2]: 4 µg/mL (≈ 1.67 µM) | MIC [3]: 0.125 µg/mL (≈ 0.0521 µM) | MIC [4]: 0.25 µg/mL (≈ 0.104 µM) | MIC [5]: 8 µg/mL (≈ 3.33 µM) | MIC [6]: 0.5 µg/mL (≈ 0.208 µM) | MIC [7]: 0.25 µg/mL (≈ 0.104 µM) | MIC [8]: 0.25 µg/mL (≈ 0.104 µM)

CC(=O)N[C@@H](CCN)C(=O)N[C@@H](CC(C)C)C(=O)N[C@H](C(=O)N[C@@H](Cc1ccc(O)cc1)C(=O)N[C@H]1CSSC[C@@H](C(=O)N[C@H](C(=O)N[C@@H](C)C(=O)N[C@H](C(N)=O)C(C)C)C(C)(C)C)NC(=O)[C@H](Cc2c[nH]c3ccccc23)NC(=O)[C@H](CCN)NC(=O)[C@@H](CCN)NC(=O)[C@H](CCC(=O)N[C@@H](CCN)C(=O)N[C@H](C(=O)N[C@@H](CN)C(=O)N[C@H]2CCNC(=O)[C@H]([C@@H](C)O)NC(=O)[C@H](CCN)NC(=O)[C@H](CCN)NC(=O)[C@H](CC(C)C)NC(=O)[C@@H](CC(C)C)NC(=O)[C@H](CCN)NC2=O)[C@@H](C)O)NC1=O)[C@@H](C)O [Ex. 239] (I: Ac-[Dab]LTYCE[dDab][Dab]WC[Tle]AV-NH2 / II: [Dab]T[Dap][Dab][Dab][dL]L[Dab][Dab]T; disulfide I:5-I:10; amide I:6-II:N; lactam II:4-II:C)
Hemolysis at 200 μg/mL [1]: 1% | MIC (Escherichia coli 926415): 0.0625 µg/mL (≈ 0.0246 µM) | MIC [2]: 0.25 µg/mL (≈ 0.0985 µM) | MIC [3]: 0.25 µg/mL (≈ 0.0985 µM) | MIC [4]: 0.125 µg/mL (≈ 0.0493 µM) | MIC [5]: 0.25 µg/mL (≈ 0.0985 µM) | MIC [6]: 0.125 µg/mL (≈ 0.0493 µM) | MIC [7]: 0.125 µg/mL (≈ 0.0493 µM) | MIC [8]: 0.0625 µg/mL (≈ 0.0246 µM)

CC(=O)N[C@H](C(=O)N[C@H]1CSSC[C@@H](C(=O)N[C@@H](CO)C(N)=O)NC(=O)[C@H](C(C)(C)C)NC(=O)[C@H](CO)NC(=O)[C@H](Cc2c[nH]c3ccccc23)NC(=O)[C@H](CO)NC(=O)[C@@H](CCN)NC(=O)[C@H](CCC(=O)N[C@@H](CCN)C(=O)N[C@H](C(=O)N[C@@H](CN)C(=O)N[C@H]2CCNC(=O)[C@H]([C@@H](C)O)NC(=O)[C@H](CCN)NC(=O)[C@H](CCN)NC(=O)[C@H](CC(C)C)NC(=O)[C@@H](CC(C)C)NC(=O)[C@H](CCN)NC2=O)[C@@H](C)O)NC(=O)[C@H](CO)NC(=O)[C@H](Cc2ccc(O)cc2)NC1=O)C(C)C [Ex. 132] (I: Ac-VCYSE[dDab]SWS[Tle]CS-NH2 / II: [Dab]T[Dap][Dab][Dab][dL]L[Dab][Dab]T; disulfide I:2-I:11; amide I:5-II:N; lactam II:4-II:C)
Hemolysis at 200 μg/mL [1]: 2% | MIC (Escherichia coli 926415): 0.0625 µg/mL (≈ 0.026 µM) | MIC [2]: 0.125 µg/mL (≈ 0.0521 µM) | MIC [3]: 0.125 µg/mL (≈ 0.0521 µM) | MIC [4]: 0.03125 µg/mL (≈ 0.013 µM) | MIC [5]: 0.125 µg/mL (≈ 0.0521 µM) | MIC [6]: 0.0625 µg/mL (≈ 0.026 µM) | MIC [7]: 0.125 µg/mL (≈ 0.0521 µM) | MIC [8]: 0.03125 µg/mL (≈ 0.013 µM)
